Experimental data reported in patent US20210038577A1, “THIOREDOXIN REDUCTASE INHIBITORS FOR USE IN THE TREATMENT OF CANCER” (Cinda Pharma AB, priority 2018, published 2021).

How the values were obtained:
recombinant TrxR = molecular target: T1, recombinant TrxR (Rattus norvegicus, UniProt O89049); experiment: Sec-independent SecTRAP activity (Juglone assay); conditions: for Juglone Act (% @ 100% DTNB inhibition): compound at the concentration that achieves 100% inhibition of TrxR in the DTNB assay
T1 sequence (O89049 1-499): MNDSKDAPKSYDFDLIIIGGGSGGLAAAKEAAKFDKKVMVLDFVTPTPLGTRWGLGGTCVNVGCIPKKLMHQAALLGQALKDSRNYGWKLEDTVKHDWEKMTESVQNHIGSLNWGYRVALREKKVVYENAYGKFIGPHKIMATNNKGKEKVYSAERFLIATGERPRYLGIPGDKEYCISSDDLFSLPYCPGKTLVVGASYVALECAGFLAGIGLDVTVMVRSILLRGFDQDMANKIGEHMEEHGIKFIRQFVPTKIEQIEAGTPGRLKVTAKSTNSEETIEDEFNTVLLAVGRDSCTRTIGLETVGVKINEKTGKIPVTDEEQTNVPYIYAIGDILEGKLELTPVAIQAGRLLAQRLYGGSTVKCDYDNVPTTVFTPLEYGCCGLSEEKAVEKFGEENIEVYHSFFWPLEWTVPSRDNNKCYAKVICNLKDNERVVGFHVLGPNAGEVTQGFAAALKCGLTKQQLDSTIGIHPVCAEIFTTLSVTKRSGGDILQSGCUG
Protocol: SecTRAP forming capabilities of compounds with TrxR was determined using the Juglone Assay. Compounds were incubated in the presence of recombinant TrxR and 250 μM NADPH for 15 minutes at concentrations fully inhibiting enzyme activity in the DTNB assay. 100 μM juglone was then added to each well and NADPH consumption was followed at OD340 to determine sustained reductive capacity at the N-terminus of TrxR (SecTRAP Activity). Activity was determined following the consumption of NADPH over time and normalized to DMSO only (Vehicle) and TrxR lacking (blank) controls.
Aliquots were used in a DTNB assay to determine inhibition of enzyme activity. […] Incubation samples were then added to a reaction buffer containing 250 μM NADPH and 100 μM juglone, whereupon NADPH consumption was followed at OD340 to determine sustained SecTRAP activity.
Higher % values for juglone activity (juglone reduction activity) in this assay are indicative of stronger prooxidant activity.

Trx in MDA-MB-231 cells = experiment: Intracellular Trx levels by ELISA in MDA-MB-231 tumor cells; type: cell-based, human; conditions: for intracellular Trx during treatment: 0.1 μM, 1 μM and 10 μM, over 96 hours; for total intracellular Trx at end of experiment versus untreated cell cultures: end of experiment (96 hours)
Protocol: The human mammary carcinoma cell line MDA-MB-231 was obtained from the American Type Culture Collection (ATCC; Manassas, Va.) and cultured in Leibovitz's L-15 medium (Thermo Fisher Scientific, USA) supplemented with 10% (v/v) heat-inactivated fetal bovine serum (Thermo Fisher Scientific, USA), 10 mM HERBS (Sigma), 25 mM sodium bicarbonate (Sigma), 1× Glutamax (Sigma), 100 IU/mL penicillin and 100 μg/ml streptomycin (Sigma) in a 5% CO2 atmosphere at 37° C. Briefly, cells were seeded at 7500 cells/well in 96-well plates. After 24 h, the cells were treated either with different concentrations of test compounds or DMSO (0.5%; vehicle control) respectively and further incubated at 37° C. in a CO2 incubator. Culture supernatants were collected at different time points, like, immediately after cell plating (−24 h), 0 h (at the time of compound addition), and 1 h, 6 h, 12 h, 24 h, 48 h, 72 h and 96 h following compound addition. Subsequently, cells were lysed from corresponding wells with 0.1% Triton X-100 and the lysates were collected. Trx levels were measured in both the culture supernatants and cell lysates by ELISA using TXN (Human) ELISA Kit [Abnova; Cat no: KA0535] following manufacturer instruction. A standard curve was prepared using different concentrations of the Trx standard (provided in the kit) with the help of GraphPad Prism software (version 5.0; La Jolla, Calif., USA). Trx concentrations for the unknown samples were calculated from the standard curve. The data were expressed as the means of three replicates.

[1] = system: NB-4 (a leukaemia cell line); experiment: MTT cell viability assay, NB-4; type: cell-based; conditions: 72 hrs
Protocol: MDA-MB-453 (ATCC HTB-131) cells were grown in media with sodium pyruvate. MDA-MB-231 cells (ATCC HTB-26) were grown in DMEM media or L-15 supplemented with Glutamax (1×). U87-MG (ATCC HTB-14) and MDA-MB-468 (ATCC HTB-132) cells were cultured in DMEM supplemented with Glutamax (1×). NB-4 (DSMZ ACC-207) cells were cultured in RPMI 1640.
Breast cancer and glioblastoma cell lines were plated 4000 cells/well in 96-well plates in the presence of 10% FBS media. The following day cells were treated with various concentrations of the example compounds (0.1% DMSO final) and incubated for 72 hrs. After the incubation an MTT assay was performed to access cell viability. Percent of viability was determined using DMSO vehicle and no cell (blank) controls.

Compound | Juglone Act (% @ 100% DTNB inhibition) (recombinant TrxR) [%] | intracellular levels of Trx compared with control cells (Trx in MDA-MB-231 cells; at 10 μM) | time after which intracellular Trx is reduced compared with control cells (Trx in MDA-MB-231 cells; at 10 μM) [h] | IC50 [1] [nM] | intracellular Trx during treatment (Trx in MDA-MB-231 cells) | total intracellular Trx at end of experiment versus untreated cell cultures (Trx in MDA-MB-231 cells) | classification as SecTRAP forming agent (recombinant TrxR; DTNB assay inhibited, juglone activity retained) | N-terminal juglone reduction activity (recombinant TrxR; Iniparib at 1 mM compared with OT-1000 at 1 μM (FIG. 1B)) | intracellular Trx levels in comparison to untreated cells (Trx in MDA-MB-231 cells; e.g. at the 96 h time point)
CCCCCCCCS(=O)(=O)c1nc(OC)ccc1[N+](=O)[O-] [OT-1096, 6-methoxy-3-nitro-2-(octylsulfonyl)pyridine] | 86.96 | reduced | 24 | 3220 |  |  |  |  | 
COc1ccc([N+](=O)[O-])c(S(=O)(=O)c2ccc(Cl)cc2)n1 [OT-1000, 2-((4-Chlorophenyl)sulfonyl)-6-methoxy-3-nitropyridine] |  |  |  | 1200 | appears to decline | lower |  |  | 
NC(=O)c1ccc(I)c([N+](=O)[O-])c1 [Iniparib, 4-Iodo-3-nitrobenzamide, reference compound] |  |  |  | 57600 |  |  | SecTRAP forming compound | retained at a similar level to that obtained for OT-1000 | reduced
CCS(=O)(=O)c1nc(OC)ccc1[N+](=O)[O-] [OT-1129, 2-(ethylsulfonyl)-6-methoxy-3-nitropyridine] | 74.83 |  |  | 1120 | appears to decline | lower |  |  | 
